# Source: patent publication US4537879A, “A47934 Antibiotic and process for production thereof” (Eli Lilly and Company, priority 1984, dated 1985)
# Read-outs that look alike come from different tables or passages of the source.
# How the values were obtained:
# [1] = system: Clostridium difficile 2994; test: MIC against anaerobic bacteria, agar dilution; assay type: cell-based; conditions: strain 2994
# [2] = system: Clostridium perfringens 81; assay type: cell-based; conditions: strain 81; agar dilution
# [3] = system: Clostridium septicum 1128; test: MIC against anaerobic bacteria, agar dilution; assay type: cell-based; conditions: strain 1128
# [4] = system: Eubacterium aerofaciens 1235; test: MIC against anaerobic bacteria, agar dilution; assay type: cell-based; conditions: strain 1235
# [5] = system: Peptococcus asaccharolyticus 1302; test: MIC against anaerobic bacteria, agar dilution; assay type: cell-based; conditions: strain 1302
# [6] = system: Peptostreptococcus anaerobius 1428; test: MIC against anaerobic bacteria, agar dilution; assay type: cell-based; conditions: strain 1428
# [7] = system: Peptostreptococcus intermedius 1264; test: MIC against anaerobic bacteria, agar dilution; assay type: cell-based; conditions: strain 1264
# [8] = system: Propionibacterium acnes 79; test: MIC against anaerobic bacteria, agar dilution; assay type: cell-based; conditions: strain 79
# Bacteroides fragilis = test: MIC against anaerobic bacteria, agar dilution; assay type: cell-based
# [9] = system: Bacteroides thetaiotaomicron 1438; test: MIC against anaerobic bacteria, agar dilution; assay type: cell-based; conditions: strain 1438
# [10] = system: Bacteroides melaninogenicus; test: MIC against anaerobic bacteria, agar dilution; assay type: cell-based
# [11] = system: Bacteroides vulgatis 1211; test: MIC against anaerobic bacteria, agar dilution; assay type: cell-based; conditions: strain 1211
# [12] = system: Bacteroides corrodens 1874; test: MIC against anaerobic bacteria, agar dilution; assay type: cell-based; conditions: strain 1874
# [13] = system: Fusobacterium symbiosum 1470; test: MIC against anaerobic bacteria, agar dilution; assay type: cell-based; conditions: strain 1470
# [14] = system: Fusobacterium necrophorum 6054A; test: MIC against anaerobic bacteria, agar dilution; assay type: cell-based; conditions: strain 6054A
# [15] = system: Clostridium difficile strains; test: MIC against Clostridium difficile strains, agar-dilution; assay type: cell-based
# Excerpt: Antibiotic A47934 is also active against a number of strains of Clostridium difficile, as determined by the agar-dilution method.
# Staphylococcus aureus = test: MIC against a variety of bacteria, standard agar-dilution; assay type: cell-based
# [16] = system: Staphylococcus epidermidis; test: as above; assay type: cell-based
# [17] = system: Streptococcus pyogenes C203; test: as above; assay type: cell-based; conditions: strain C203
# [18] = system: Streptococcus pneumoniae Park 1; test: as above; assay type: cell-based; conditions: strain Park 1
# Streptococcus Group D = test: as above; assay type: cell-based
# Haemophilus influenza = test: as above; assay type: cell-based
# Salmonella typhi = test: as above; assay type: cell-based
# S. pyogenes C203 = test: In vivo activity against experimental bacterial infection; conditions: mice, two doses subcutaneously
# S. pneumoniae (Park I) = test: as above; conditions: mice, two doses subcutaneously
# S. aureus (3055) = test: as above; conditions: mice, two doses subcutaneously; S. aureus (3055) infection
# [19] = Acute toxicity, intraperitoneal; assay type: in vivo; conditions: mice, intraperitoneally
# Protocol: Antibiotic A47934, when given intraperitoneally to mice, has an acute toxicity greater than 300 mg./kg.
# [20] = Precipitation from broth filtrate on acidification; assay type: physicochemical; conditions: broth filtrate acidified
# Excerpt: Antibiotic A47934 can also be removed from the broth filtrate by adjusting such filtrate to about pH 3 with acid, for complete precipitation, followed by filtration. A47934 starts to precipitate at about pH 6.5 and is complete at about pH 3. Inorganic acids such as hydrochloric, sulfuric, and phosphoric, and organic acids such as acetic acid and formic acid are suitable for acidification. The crude A47934 thus obtained can be further purified by chromatographic procedures.
# [21] = system: volatile fatty acids produced in the rumen; test: Test 1: in vitro modification of the ratio of volatile fatty acids produced in the rumen
# Excerpt: The effectiveness of antibiotic A47934 in modifying the ratio of volatile fatty acids produced in the rumen has been determined using the in vitro test described in Raun, U.S. Pat. No. 3,928,571 (Dec. 23, 1975), see the EXAMPLE therein. The data in Table 9, which follows, are reported as the ratio of VFA's produced in treated flasks to VFA's produced in untreated control flasks.
# [22] = Test 2: growth promotion in chickens; assay type: in vivo, 8-day old Penobscot broilers; conditions: chicks, 20 g./T. of feed, 21 days
# Excerpt: Chicks, 8-day old Penobscot broilers, were used in this test. A total of 560 chicks were used divided into groups of 7 birds each. […] The broiler starter ration has the following composition: Feed and water were available to all groups ad libitum for 21 days. Two time replicates were run.
# [23] = Test 3: growth promotion in weanling pigs; assay type: in vivo; conditions: 28 days
# Protocol: Antibiotic A47934 was tested at levels of 10 and 50 ppm. in the diet of pigs initially weighing an average of about 23 pounds, compared with […]) administered in the diet at 110 ppm. The experiment was conducted in an environmentally controlled nursery facility with wire mesh floors in the pens. There were four replicates per treatment and four pigs per replicate for the 28-day experiment. There were six replicates of four pigs per replicate in the control group, which group received the unmedicated diet. The pigs were fed ad libitum on an 18 percent protein corn-soy ration having the following composition: At the end of the trial, the average weight of the individual pig had increased to 53 pounds.
# Peptococcus prevoti 1281 = conditions: strain 1281; agar dilution
structure (smiles),measurement,setting,value
N[C@H]1C(=O)N[C@@H]2Cc3ccc(c(Cl)c3)Oc3cc4cc(c3O)Oc3ccc(cc3Cl)[C@@H](O)[C@@H]3NC(=O)[C@H](NC(=O)[C@@H]4NC(=O)[C@@H](NC2=O)c2cc(O)cc(c2)Oc2cc1ccc2OS(=O)(=O)O)c1cc(Cl)c(O)c(c1)-c1c(O)cc(O)cc1[C@@H](C(=O)O)NC3=O [Antibiotic A47934],MIC,[1],0.5 µg/mL
same,MIC,[2],0.5 µg/mL
same,MIC,[3],0.5 µg/mL
same,MIC,[4],1.0 µg/mL
same,MIC,[5],0.5 µg/mL
same,MIC,[6],0.25 µg/mL
same,MIC,[7],1.0 µg/mL
same,MIC,[8],1.0 µg/mL
same,MIC,Bacteroides fragilis; strain 111,32.0 µg/mL
same,MIC,Bacteroides fragilis; strain 1877,32.0 µg/mL
same,MIC,Bacteroides fragilis; strain 1936B,32.0 µg/mL
same,MIC,[9],32.0 µg/mL
same,MIC,[10]; strain 1856/28,> 128.0 µg/mL
same,MIC,[10]; strain 2736,16.0 µg/mL
same,MIC,[11],32.0 µg/mL
same,MIC,[12],32.0 µg/mL
same,MIC,[13],2.0 µg/mL
same,MIC,[14],0.25 µg/mL
same,MIC,[15]; strain 78,≤ 0.5 µg/mL
same,MIC,[15]; strain 107B,≤ 0.5 µg/mL
same,MIC,[15]; strain 111F,≤ 0.5 µg/mL
same,MIC,[15]; strain 1153,≤ 0.5 µg/mL
same,MIC,[15]; strain 2634,≤ 1.0 µg/mL
same,MIC,[15]; strain 3424-5B,≤ 0.5 µg/mL
same,MIC,[15]; strain 3816,≤ 0.5 µg/mL
same,MIC,[15]; strain 3950D,≤ 0.5 µg/mL
same,MIC,[15]; strain 6890,≤ 0.5 µg/mL
same,MIC,[15]; strain 8484,≤ 0.5 µg/mL
same,MIC,[15]; strain A-194,≤ 0.5 µg/mL
same,MIC,[15]; strain A-195,≤ 0.5 µg/mL
same,MIC,[15]; strain A-196,≤ 0.5 µg/mL
same,MIC,[15]; strain A-279,≤ 1.0 µg/mL
same,MIC,[15]; strain A-280,≤ 0.5 µg/mL
same,MIC,[15]; strain A-281,≤ 0.5 µg/mL
same,MIC,[15]; strain WAL-2112,≤ 0.5 µg/mL
same,MIC,[15]; strain WAL-3657,≤ 0.5 µg/mL
same,MIC,[15]; strain WAL-4268,≤ 0.5 µg/mL
same,MIC,Staphylococcus aureus,0.125 µg/mL
same,MIC,Staphylococcus aureus; strain S13E,0.125 µg/mL
same,MIC,Staphylococcus aureus; strain X1.1,0.06 µg/mL
same,MIC,Staphylococcus aureus; strain X400,0.25 µg/mL
same,MIC,[16]; strain EPI1,0.25 µg/mL
same,MIC,[16]; strain EPI2,2.0 µg/mL
same,MIC,[17],0.25 µg/mL
same,MIC,[18],0.06 µg/mL
same,MIC,Streptococcus Group D; strain 9960,0.5 µg/mL
same,MIC,Streptococcus Group D; strain X66,0.5 µg/mL
same,MIC,Haemophilus influenza; strain 76,4.0 µg/mL
same,MIC,Haemophilus influenza; strain C.L.,2.0 µg/mL
same,MIC,Salmonella typhi; strain 1335,> 128 µg/mL
same,MIC,Salmonella typhi; strain X514,> 128 µg/mL
same,ED50,S. pyogenes C203,3.38 mg./kg. × 2
same,ED50,S. pneumoniae (Park I),1.77 mg./kg. × 2
same,ED50,S. aureus (3055),< 0.3 mg./kg. × 2
same,acute toxicity,[19],greater than 300 mg./kg.
same,pH at which A47934 starts to precipitate,[20],~6.5 pH
same,pH at which precipitation is complete,[20],~3 pH
same,"Acetate, ratio of VFA produced in treated flasks to untreated control flasks",[21]; 1 mcg./ml.,0.99
same,"Butyrate, ratio of VFA produced in treated flasks to untreated control flasks",[21]; 1 mcg./ml.,1.01
same,"Propionate, ratio of VFA produced in treated flasks to untreated control flasks",[21]; 1 mcg./ml.,1.11
same,"Acetate, ratio of VFA produced in treated flasks to untreated control flasks",[21]; 2 mcg./ml.,1.09
same,"Butyrate, ratio of VFA produced in treated flasks to untreated control flasks",[21]; 2 mcg./ml.,1.03
same,"Propionate, ratio of VFA produced in treated flasks to untreated control flasks",[21]; 2 mcg./ml.,1.10
same,"Acetate, ratio of VFA produced in treated flasks to untreated control flasks",[21]; 4 mcg./ml.,0.81
same,"Butyrate, ratio of VFA produced in treated flasks to untreated control flasks",[21]; 4 mcg./ml.,1.03
same,"Propionate, ratio of VFA produced in treated flasks to untreated control flasks",[21]; 4 mcg./ml.,1.32
same,"Acetate, ratio of VFA produced in treated flasks to untreated control flasks",[21]; 10 mcg./ml.,0.95
same,"Butyrate, ratio of VFA produced in treated flasks to untreated control flasks",[21]; 10 mcg./ml.,1.00
same,"Propionate, ratio of VFA produced in treated flasks to untreated control flasks",[21]; 10 mcg./ml.,1.12
same,Feed Efficiency % Impr.,[22]; first time replicate,4.69%
same,Feed Efficiency F/G,[22]; first time replicate,1.707
same,Weight Gain,[22]; first time replicate,519 gm.
same,Weight Gain % Impr.,[22]; first time replicate,7.23%
same,Feed Efficiency F/G,[22]; second time replicate,1.746
same,Weight Gain,[22]; second time replicate,464 gm.
same,Weight Gain % Impr.,[22]; second time replicate,0%
same,ADF % Im-crease,[23]; 10 ppm in diet,-3.2%
same,ADF (average daily feed consumption),[23]; 10 ppm in diet,1.83 lbs.
same,ADG % Im-crease,[23]; 10 ppm in diet,3.1%
same,ADG (average daily gain),[23]; 10 ppm in diet,1.00 lbs.
same,F/G % Improvement,[23]; 10 ppm in diet,7.6%
same,F/G (ratio of feed consumption to gain),[23]; 10 ppm in diet,1.82
same,ADF % Im-crease,[23]; 50 ppm in diet,4.7%
same,ADF (average daily feed consumption),[23]; 50 ppm in diet,1.98 lbs.
same,ADG % Im-crease,[23]; 50 ppm in diet,10.3%
same,ADG (average daily gain),[23]; 50 ppm in diet,1.07 lbs.
same,F/G % Improvement,[23]; 50 ppm in diet,6.1%
same,F/G (ratio of feed consumption to gain),[23]; 50 ppm in diet,1.85
same,MIC,Peptococcus prevoti 1281,1.0 µg/mL
same,MIC,Escherichia coli; strain EC14,> 128.0 µg/mL
same,MIC,Escherichia coli; strain N10,> 128.0 µg/mL
same,MIC,Escherichia coli; strain TEM,> 128.0 µg/mL
same,MIC,Klebsiella pneumoniae; strain KAE,> 128.0 µg/mL
same,MIC,Klebsiella pneumoniae; strain X26,> 128.0 µg/mL
"CC[C@H]1OC(=O)C[C@@H](O)[C@H](C)[C@@H](O[C@@H]2O[C@H](C)[C@@H](O[C@H]3C[C@@](C)(O)[C@@H](O)[C@H](C)O3)[C@H](N(C)C)[C@H]2O)[C@@H](CC=O)C[C@@H](C)C(=O)/C=C/C(C)=C/[C@@H]1CO[C@@H]1O[C@H](C)[C@@H](O)[C@@H](OC)[C@H]1OC [Tylan, tylosin, reference compound]",ADF % Im-crease,[23]; 110 ppm in diet,2.6%
same,ADF (average daily feed consumption),[23]; 110 ppm in diet,1.94 lbs.
same,ADG % Im-crease,[23]; 110 ppm in diet,4.1%
same,ADG (average daily gain),[23]; 110 ppm in diet,1.01 lbs.
same,F/G % Improvement,[23]; 110 ppm in diet,2.5%
same,F/G (ratio of feed consumption to gain),[23]; 110 ppm in diet,1.92
